Data: publication PMC3627194, “Xentry, a new class of cell-penetrating peptide uniquely equipped for delivery of drugs” (Scientific Reports, 2013)

Tests used:
HepG2 cells [1] = experiment: Assay to test for cell permeability of peptides; assay type: cell-based; conditions: confocal microscopy
Protocol: Figure 1 Cell-permeability of X-protein peptides. (a) X-protein peptides aa 1–20 and 16–35 are cell-permeable. Four FITC-labelled peptides encompassing aa 1–20, 16–35, 21–40 and 34–53 from the N-terminal region of the X-protein were incubated at 10 μM with HepG2 cells and their uptake by the cells recorded by confocal microscopy. Cell nuclei were stained blue with DAPI. (b) The sequence of the first 35 N-terminal residues of the HBV X-protein are shown with the sequence of Xentry (LCLRPVG; residues 16–22) highlighted in red. Short FITC-labelled peptides (10 μM) aa 16–26, 16–24 and 16–22 (Xentry) derived from peptide aa 16–35 also permeate HepG2 cells (upper panel). […] Cell nuclei were stained blue with DAPI. […] Cell nuclei were stained blue with DAPI. Scale bar, 50 μm.
(§1) HepG2 cells (ATCC, Manassas, VA) were seeded into 8-well chamber slides at 1 × 10^5 cells per well in MEM media (Gibco, Life Technologies New Zealand Ltd) containing 10% FCS and PSG. […] L-isomeric peptides were diluted in 500 μl of MEM media without FCS, whereas D-isomeric peptides were diluted in the same media containing FCS, and each added to cells at a final concentration of 10 μM, or as indicated. The cells were incubated for 3 h at 37°C in a 5% CO2 atmosphere, washed with PBS, fixed with 4% formaldehyde for 30 min, and washed thrice with PBS. A drop of Prolong Gold anti-fade reagent with DAPI (Invitrogen, Life Technologies New Zealand Ltd) was added, and the cells mounted and examined with a Nikon E600 fluorescence microscope or a Leica TCS-SP2 confocal microscope.
(§2) Supplementary Figure 3. The D-isomeric form of Xentry aa 16-22 is cell permeable, and is stable in serum for at least 4 h.
(§3) (a) FITC-labelled D-isomeric Xentry was incubated with HepG2 cells at concentrations of […] for 3 h.
(§4) Uptake was recorded by fluorescence microscopy. Cell nuclei were stained with DAPI. (b) FITC-labelled L-isomeric and D-isomeric forms of Xentry were incubated in serum for 0, 1, and 4 h before incubation with HepG2 cells. Cell nuclei were stained with DAPI. Scale bar, 50 μm. […]

C32 (melanoma) = experiment: Cell permeability of Xentry, C32 cell line; assay type: cell-based; conditions: data not shown
DU145 (prostate) = experiment: Cell permeability of Xentry, DU145 cell line; assay type: cell-based; conditions: data not shown
H441 (lung) = experiment: Cell permeability of Xentry, H441 cell line; assay type: cell-based; conditions: data not shown
BT474 (breast) = experiment: Cell permeability of Xentry, BT474 cell line; assay type: cell-based; conditions: data not shown
Cos (kidney) = experiment: Cell permeability of Xentry, Cos cell line; assay type: cell-based; conditions: data not shown
[2] = system: Rin-m5F (pancreatic β-cell); experiment: Cell permeability of Xentry, Rin-m5F cell line; assay type: cell-based; conditions: data not shown
[3] = system: human peripheral blood lymphocytes; experiment: Uptake of Xentry by non-adherent blood lymphocytes; assay type: cell-based; conditions: FITC-labelled Xentry 10 μM
erythrocytes = experiment: Uptake of Xentry by erythrocytes; assay type: cell-based, human; conditions: FITC-labelled Xentry 10 μM
[4] = system: K562 erythroleukemia cells; assay type: cell-based; conditions: non-adherent K562 erythroleukemia cells, FITC-labelled Xentry (LCLRPVG), fluorescence microscopy
Protocol: (§5) K562 cells TK-1 cells Activated TK-1 cells
(§6) Supplementary Figure 1. […] FITC- […]
(§7) labelled Xentry (LCLRPVG; aa 16-22) was incubated with non-adherent K562 erythroleukemia cells and mouse TK-1 T cells and with Mn++-activated TK-1 cells attached to MAdCAM-1-coated plates. Cell uptake was recorded by fluorescence microscopy. Cell nuclei were stained blue with DAPI. Plates were coated with 1 µg/ml of MAdCAM-1 overnight and activated TK-1 cells were allowed to bind to the plates for 45 mins before incubation with FITC-labelled Xentry for 3 h. Scale bar represents […]

mouse TK-1 T cells = assay type: cell-based; conditions: non-adherent mouse TK-1 T cells, FITC-labelled Xentry (LCLRPVG), fluorescence microscopy
Protocol: as §5, §6, §7

[5] = system: peripheral blood monocytes attached to plastic; experiment: Uptake of Xentry by adherent blood monocytes; assay type: cell-based, human; conditions: FITC-labelled Xentry 10 μM
[6] = system: Mn++-activated adherent TK-1 T cells bound to MAdCAM-1-coated plates; assay type: cell-based, mouse; conditions: Mn++-activated TK-1 cells bound via α4β7 to plates coated with 1 µg/ml MAdCAM-1, FITC-labelled Xentry 3 h
Protocol: as §5, §6, §7

HepG2 cells [7] = assay type: cell-based
Protocol: as §1
Untreated 37°C 4°C deoxyglucose Heparin Chlorpromazine
Supplementary Figure 2. Cellular requirements for internalization of Xentry by HepG2 cells. (a) Incubation of FITC-labelled Xentry with HepG2 cells for 3 h at 4°C, or in the presence of 10 mM sodium azide and 6 mM 2-deoxy-D-glucose, 2 µg/ml heparin, or 10 µg/ml of chlorpromazine, as indicated, inhibited peptide uptake. Cell nuclei were stained blue with DAPI. Scale bar, 50 μm. […]

[8] = assay type: in vitro ADME; conditions: FITC-labelled peptide incubated in serum 0, 1 and 4 h, then incubated with HepG2 cells; read-out cell uptake by fluorescence microscopy
Protocol: as §2, §3, §4

[9] = Acute toxicity after intravenous injection; assay type: in vivo; conditions: very high concentrations, single injection into the circulation
[10] = system: K562 cells transfected to express syndecan-4; experiment: Uptake of Xentry by K562 cells engineered to express syndecan-4; assay type: cell-based; conditions: TAMRA-lclrpvg 20 μM, 3 h, 48 h after transfection with pCMV-hygro-SDC4
Protocol: Cell nuclei were stained blue with DAPI. […] Scale bar, 50 μm.
The media was removed and replaced with RPMI without serum. Four micrograms of the syndecan-4 plasmid pCMV-hygro-SDC4 and 4 μl of polymag transfection reagent (OZ Biosciences, Marseille, France) were mixed in 100 μl of Opti-MEM media. The mixture was incubated for 20 min at room temperature, added to the cells, and the tissue culture plate placed onto a magnetic plate for 20 min. The media was removed and replaced with RPMI media containing 10% FCS, followed by incubation for 48 h at 37°C and 5% CO2, with a media change after 24 h. TAMRA-labelled Xentry (TAMRA-lclrpvg) was added to the transfectants 48 h following transfection to a final concentration of 20 μM, and the cells were incubated for 3 h. The cells were removed from the plate, washed thrice with PBS, cytospun onto a slide, and fixed with 4% formaldehyde for 15 min. They were washed with PBS and DAPI added for visualization of cell nuclei. […] The cells were then examined using a Nikon E600 fluorescent microscope, and photographed.

[11] = assay type: in vivo, Balb/c mice
Protocol: (§8) All experiments in mice were performed in accordance with relevant institutional guidelines and regulations, and were subject to a protocol approved by the Animal Ethics Committee, the University of Auckland. Different amounts (0.1 mg, 1 mg and 5 mg) of a TAMRA-labelled D-isomeric form of Xentry (TAMRA-lclrpvg; Peptide 2.0 Inc., Chantilly, VA) were dissolved in 50 μl of PBS. […] Cardiac blood was collected into an EDTA tube and cytospun onto slides, and viewed by fluorescence microscopy to determine uptake of the peptide by blood cells. The major organs of each mouse was harvested and dissected in half to be either homogenized or placed in a cryotube with isopentane, frozen and sectioned. For homogenization, the organs were weighed and then homogenized in 500 μl of PBS in an Omni bead-ruptor homogenizer (OMNI International, Kennesaw, GA). Equal volumes of homogenate and 8 M guanidinium chloride were mixed, and then centrifuged at 12,000 g for 5 min, and fluorescence of the supernatant measured in a fluorescence plate reader.
Supplementary Figure 5 (cont)
Heart Lung Liver Spleen Pancreas Kidney Stomach Intestine Colon Muscle Brain […]
Supplementary Figure 5. Biodistribution of TAMRA-labelled Xentry intravenously injected into mice. (a) Mice were intravenously injected with 0.1 mg and 5 mg of TAMRA-labelled Xentry and the fluorescence of organ homogenates was measured 15 min, 1, 6, and 24 h later. Results are presented as the mean + SD (n = 3). Refer to Figure 4d for the fluorescence of organ homogenates of mice injected with 1 mg of Xentry. (b) Fluorescence of sections of the major organs of mice intravenously injected with 5 mg of TAMRA-labelled Xentry. The liver sections for the 15 min time-point […]

circulating blood cells = assay type: in vivo, Balb/c mice; conditions: 0.1, 1 and 5 mg i.v.; cytospins of whole blood at 15 min, 1 h, 6 h and 24 h
Protocol: as §8
Supplementary Figure 6. […] A sample of […]
cardiac blood was collected from mice injected with 0.1, 1 and 5 mg of TAMRA-labelled Xentry at 4 different time points, and cytospun onto a slide. The blood sample was examined by brightfield and fluorescence microscopy. […]

In the case of “LCLRPVG [Xentry, 7 amino acid residue peptide LCLRPVG (residues 16–22) of the HBV X-protein; FITC-labelled in uptake tests]”, the “Cell permeability (uptake by HepG2 cells)” value (HepG2 cells [1]; FITC-labelled L-isomeric peptide 10 μM, MEM without FCS, 3 h, 37°C, cells fixed) is reported as “cell-permeable”, the “Subcellular localisation after uptake” value (HepG2 cells [1]; FITC-labelled peptide 10 μM, HepG2 cells, DAPI) is reported as “taken up into the cytoplasm and nucleus” and the Cell permeability (C32 (melanoma)) is reported as “capable of permeating”. For the same substance, the Cell permeability (DU145 (prostate)) was “capable of permeating”, the Cell permeability (H441 (lung)) was “capable of permeating” and the Cell permeability (BT474 (breast)) was “capable of permeating”. For the same substance, the Cell permeability (Cos (kidney)) was “capable of permeating”, the Cell permeability [2] was “capable of permeating” and the Cell permeability [3] was “incapable of permeating”. The Cell permeability (erythrocytes) was “incapable of permeating”, the Cell permeability [4] was “incapable of permeating” and the Cell permeability (mouse TK-1 T cells) was “incapable of permeating”. The Cell uptake [5] was “taken up”, the Cell uptake [6] was “taken up” and the “Internalization by HepG2 cells at 4°C” value (HepG2 cells [7]; FITC-labelled Xentry, 3 h, 4°C) was “not at 4 °C”. The “Internalization by HepG2 cells at 37°C” value (HepG2 cells [7]; FITC-labelled Xentry, 3 h, 37°C) was “internalized”, the “Uptake in the presence of heparin” value (HepG2 cells [7]; HepG2, 2 µg/ml heparin, 3 h) was “blocked” and the “Uptake in the presence of chlorpromazine” value (HepG2 cells [7]; HepG2, 10 µg/ml chlorpromazine (clathrin pathway inhibitor), 3 h) was “blocked”. The “Uptake after pretreatment with azide and deoxyglucose” value (HepG2 cells [7]; HepG2, 10 mM sodium azide and 6 mM 2-deoxy-D-glucose, 3 h) was “blocked”, the “Effect of cytochalasin D on uptake” value (HepG2 cells [7]; HepG2, data not shown) was “without effect” and the “Effect of filipin on uptake” value (HepG2 cells [7]; HepG2, data not shown) was “without effect”. For the same substance, the “Time to inactivation in serum” value [8] was ≤ 1 h and the Acute toxicity [9] was “no signs of acute toxicity”.

For “TAMRA-lclrpvg [TAMRA-labelled Xentry, TAMRA-labelled D-isomeric form of Xentry]”, the “Uptake by syndecan-4-expressing K562 transfectants” value [10] was “increased uptake”, the “Uptake by heart, pancreas, brain relative to other tissues” value ([11]; 0.1, 1 and 5 mg i.v., organ homogenates) was “less well” and the “Time to uptake by major tissues (organ homogenates)” value ([11]; 0.1, 1 and 5 mg i.v., lungs, liver, spleen, kidneys, stomach, small intestine, colon, muscle, homogenate fluorescence, n = 3) was ≤ 15 min. For the same substance, the “Level in most organs, except liver and kidneys, by 24 h” value ([11]; i.v., 24 h, organ homogenates) was “only low levels”, the “Distribution within tissue sections” value ([11]; i.v., fluorescence of organ sections) was “concentrated within particular regions of certain tissues, such as the epithelia lining the colon, stomach and bronchial airways” and the “Uptake by circulating blood cells” value (circulating blood cells) was “not taken up and sequestered”.
